Measured values from patent US4259337A, “Method for using m-trifluoromethylphenyl-piperidines” (Roussel Uclaf, priority 1976, dated 1981).
Structures can show the parent of a compound that is named as a salt.

Legend:
[1] = Acute toxicity; conditions: mouse, in vivo, ip; mice, intraperitoneal, 48 hours after administration
Method: The LD50, the dose at which 50% of the mice died after the intraperitoneal administration of the products to mice was determined 48 hours after the administration.

[2] = test system: rigidity provoked by reserpine; assay: Antagonism with respect to reserpinic rigidity; format: in vivo; parameters: key to Antagonism to reserpinic rigidity for a determined dose in mg/kg: ++: It was expressed by an increasing number of + signs for a given dose expressed in mg/kg; conditions: rat; for Antagonism to reserpinic rigidity for a determined dose in mg/kg: reserpine 10 mg/kg i.v., E.M.G.
Method: The antagonism of the compounds with respect to reserpinic rigidity [Jurna I: Arch. Pharmak. Exp. Path. Vol. 260 (1968), p. 80-88] was studied on the rat. The tests consisted of recording, by means of electrodes placed on the muscles of the anterior cavity of one of the rear paws of the animal, the electromyogram (E.M.G.) provoked by a dorsiflection of the instep. A dose of 10 mg/kg of reserpine was administered intraveneously, then, one half hour later when the hypertonicity of the muscle was maximal, the product to be studied was administered in the same way at a dose of 10 mg/kg or of 20 mg/kg.
The electromyographic responses obtained before and after treatment, were compared in intensity and in time. The inhibition observed on the electromyogram expressed the antagonism exercised by the product with respect to the rigidity provoked by reserpine. It was expressed by an increasing number of + signs for a given dose expressed in mg/kg.

[3] = test system: catalepsy provoked by prochlorpemazine; assay: Antagonism of catalepsy provoked by prochlorpemazine; format: in vivo; parameters: key to Antagonism of catalepsy provoked by prochloropemazine for a determined dose in mg/kg: evaluated at the height of the effect was expressed by an increasing number of + signs for a given dose; ++: evaluated at the height of the effect was expressed by an increasing number of + signs for a given dose; +++: evaluated at the height of the effect was expressed by an increasing number of + signs for a given dose; conditions: rats; for Antagonism of catalepsy provoked by prochloropemazine for a determined dose in mg/kg: prochlorpemazine 15 mg/kg i.p.; for antagonism toward the cataleptigenic activity of prochlorpemazine: in words, i.p.
Method: The tests are carried out on groups of 5 young rats weighing about 100 g and the cataleptigenic agent used is prochlorpemazine at a dose of 15 mg/kg intraperitoneally. The product studied was administered simultaneously in the same way. The intensity of the catalepsy was evaluated by the test of crossing of the homolateral paws [BOISSIER et al, Therapie, Vol. 18 (1963), p. 1257] every hour for 7 hours. The rating adopted is the following: the animal refuses the crossing of the front paws with the homolateral rear paws (0), he retains the desired crossing on one side only (0.5), he accepts the crossing on both sides (1). The sum of the scores by groups read at different periods after the administration of the product studied is determined. The antagonism of catalepsy provoked by prochlorpemazine evaluated at the height of the effect was expressed by an increasing number of + signs for a given dose and the results are reported in Table II.

[4] = test system: dog; assay: Anorexigenic activity in the dog; format: in vivo; conditions: administered in the first ball, 7 hours
Method: The anorexigenic activity was studied on the dog using the method of ADAMS et al [J. Pharm. Sci., Vol. 53 (1964), p. 1405]. On the day of the test of a substance presumed to be anorexigenic, the individual daily ration of the animals was broken down into substantially equal balls (10 to 20 g) which were offered to the dogs every 10 minutes for 7 hours. Normally, the animals regularly accept the successive balls offered to them. Refusal translates the anorexiant effectiveness of the compound studied which was administered in the first ball. The anorexigenic activity was expressed by an increasing number of + signs for a given dose expresses in mg/kg.

[5] = test system: mice; assay: Anorexigenic activity in mice; format: in vivo; conditions: 20 mg/kg i.p., food intake over following 24 hours
Method: The anorexigenic activity was studied with mice and the animals receive the product studied intraperitoneally 30 minutes before the start of the test. The quantities of nourishment absorbed in the course of the following 24 hours was noted and compared with the quantity of nourishment absorbed in the course of the same period by animals not receiving the product studied. The anorexigenic activity was expressed by an increasing number of + signs for a given dose expressed in mg/kg.

[6] = test system: stereotypies provoked by dexamphetamine; assay: Potentiation of stereotypies provoked by dexamphetamine; format: in vivo; parameters: Potentiation of stereotypies provoked by dexamphetamine for a determined dose in mg/kg: key to the marks not given beside the values; conditions: rats; for Potentiation of stereotypies provoked by dexamphetamine for a determined dose in mg/kg: dexamphetamine sulfate 3 mg/kg i.p.
Method: Each animal was placed individually in a grilled cage (29×25 ×17 cm) containing a few wood shavings. A does of 3 mg/kg of dexamphetamine sulfate was injected intraperitoneally one half hour after the intraperitoneal administration of the product studied. The behavior of the animals was noted every half hour for 5 hours with the rating recommended by […] et al [Brit. J. Pharmacol., Vol. 23 (1964), p. 330-350]. The animalis asleep (0), he is awake but immobile (1), he is turning in his cage (2), he is sniffing the lid (3), he is licking the sides (4), he is touching the shavings or the bars of the cage with his teeth (5), he is biting the chips or bars of the cage (6). The total of the scores per group at different periods after the administration of the product studied was determined and the potentiation of the stereotypies evaluated at the height of the effect is expressed by an increasing number of + signs for a given dose.

| SMILES | LD50 at 48 h [1] [mg/kg] | Antagonism to reserpinic rigidity for a determined dose in mg/kg ([2]; 20 mg/kg i.v.) | Antagonism of catalepsy provoked by prochloropemazine for a determined dose in mg/kg ([3]; 20 mg/kg i.p.) | antagonism toward the cataleptigenic activity of prochlorpemazine [3] | anorexigenic activity ([4]; 20 mg/kg) | anorexigenic activity [5] | Potentiation of stereotypies provoked by dexamphetamine for a determined dose in mg/kg ([6]; 2 mg/kg i.p.) | Potentiation of stereotypies provoked by dexamphetamine for a determined dose in mg/kg ([6]; 0.2 mg/kg i.p.) | activity of potentiation of stereotypies provoked by dexamphetamine ([6]; in words, i.p.) | Antagonism to reserpinic rigidity for a determined dose in mg/kg ([2]; 10 mg/kg i.v.) | Antagonism to reserpinic rigidity ([2]; in words, i.v.) | Antagonism of catalepsy provoked by prochloropemazine for a determined dose in mg/kg ([3]; 50 mg/kg i.p.) | anorexigenic activity ([4]; 25 mg/kg) | Potentiation of stereotypies provoked by dexamphetamine for a determined dose in mg/kg ([6]; 20 mg/kg i.p.) |
| --- | --- | --- | --- | --- | --- | --- | --- | --- | --- | --- | --- | --- | --- | --- |
| Cl.FC(F)(F)c1cccc(C2CCCNC2)c1 (stereo not drawn) [Example 1, 3-(m-trifluoromethylphenyl)-piperidine hydrochloride] | ~150 | ++ | ++ | substantial antagonism | + | + | – | – | – | – | – | – | – | – |
| CN1CCCC(c2cccc(C(F)(F)F)c2)C1.Cl (stereo not drawn) [Example 3, N-methyl-3-(m-trifluoromethylphenyl)-piperidine hydrochloride] | ~100 | ++ | + | – | – | – | ++ | – | – | – | – | – | – | – |
| CC(C)N1CCCC(c2cccc(C(F)(F)F)c2)C1.Cl (stereo not drawn) [Example 4, N-isopropyl-3-(m-trifluoromethylphenyl)-piperidine hydrochloride] | ~100 | – | – | substantial antagonism | – | + | – | +++ | very high activity | ++ | very high activity | +++ | + | – |
| FC(F)(F)c1cccc(C2CCCN(Cc3ccccc3)C2)c1 (stereo not drawn) [Example 6, N-benzyl-3-(m-trifluoromethylphenyl)-piperidine hydrochloride] | ~150 | – | – | – | – | – | – | – | – | – | – | – | – | ++ |
